Data set [1] concerns C2C12 cells. Nature of the data set: Evaluation of myogenesis of C2C12 cells by fusion index. In kind it is cell-based, mouse. The settings on record: differentiation condition 72 hours, DMSO as 1, average of three. The protocol:
(1) C2C12 cells were grown to confluence under growth condition, and then in differentiation condition for 72 hours, in a culture medium added with DMSO, IBS008738 (exemplary compound 1) or exemplary compounds 2 to 44, at a concentration of 1 μM, 3 μM or 10 μM, respectively. Thereafter, the degree of myogenesis was evaluated by a fusion index (a value obtained by dividing the number of nuclei detected in multinucleated myosin heavy chain (MHC)-positive cells by the total number of the nuclei). Specifically, exemplary compounds were divided into five groups, and DMSO and IBS008738 were evaluated in each group as controls. The evaluation was conducted three times, and the average value and the standard deviation of the fusion index was relativized with the measured value of DMSO as 1.
C2C12 cells were passaged in a growth medium (DMEM containing 10% FBS) and differentiated in a differentiation medium (DMEM containing 2% horse serum (Invitrogen)).

The test system of a further data set is A431 cells. The data set is described as follows: Tumor sphere formation of A431 cells. In kind it is cell-based. The settings on record: Ultra Low Attachment plate, serum-free medium, 10 μM, 10 days, maximum diameter of 30 cell aggregates. The procedure:
(2) Each well of a 96-well plate was pre-coated with 30 μL BD Matrigel (trade name, Becton, Dickinson and Company). A431 cells were suspended in the 2% BD Matrigel at a concentration of 2.1×10^6 cells/mL. This cell solution (140 μL) was added with 0.17 μL of 10 mM IBS008739 stock solution in DMSO or 0.17 μL of DMSO, and used to layer the pre-coated wells, and proliferation in the 3D matrigel was observed (see FIG. 12B). 300 of A431 cells were placed in each well of Ultra Low Attachment 96-well plate, and cultured in a serum-free DMEM-F-12 medium containing 10 ng/mL FGF, 5 μg/mL insulin and 0.1% (w/v) BSA. Formation of tumor spheres was observed under the condition with 10 mM IBS008739 stock solution dissolved in DMSO so that the final concentration was 10 μM, or the condition with DMSO of the same volume (see FIG. 12C). The maximum diameter of 30 cell aggregates of 150 μm or more observed in the 3D matrigel or sphere formation condition) are measured as the size of 3D colony or sphere. The results are shown in Table 10 and FIGS. 12B and 12C. The line in the figure is 200 μm. The line and the error bar indicate the average value and the standard error, and ns refers to not significant.
Observation of the spheres and the 3D matrigel cultivation were performed by the following processes. […]

A further data set deals with TAZ. Nature of the data set: Localization of TAZ in the cell by cell fraction. In kind it is cell-based, mouse. The settings on record: C2C12 cells, 24 hours under differentiation condition. The procedure: Phosphorylation of TAZ and its localization in the cell are important factors in controlling the activity of TAZ. The localization of TAZ in the cell was examined by performing cell fraction of C2C12 cells after being cultured for 24 hours under differentiation condition in a medium added with IBS008738 or DMSO.

The target in data set [2] is T1, interaction of TAZ and MyoD (Homo sapiens, UniProt Q9GZV5).
T1 construct: expressed in transfected cells; host or cells: HEK 293 (human embryonic kidney cells)
T1 sequence (Q9GZV5 whole entry): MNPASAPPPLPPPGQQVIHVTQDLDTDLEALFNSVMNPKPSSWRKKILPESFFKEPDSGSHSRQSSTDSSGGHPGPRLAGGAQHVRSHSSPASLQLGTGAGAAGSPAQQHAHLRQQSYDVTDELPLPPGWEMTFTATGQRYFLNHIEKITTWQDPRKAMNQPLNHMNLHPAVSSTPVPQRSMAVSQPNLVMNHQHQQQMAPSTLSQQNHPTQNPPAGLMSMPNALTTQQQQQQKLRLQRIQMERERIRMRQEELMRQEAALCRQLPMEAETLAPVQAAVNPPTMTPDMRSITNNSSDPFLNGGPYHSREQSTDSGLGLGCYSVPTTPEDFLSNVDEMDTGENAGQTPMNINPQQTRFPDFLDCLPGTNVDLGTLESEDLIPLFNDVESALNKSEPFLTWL
Nature of the data set: Immunoprecipitation of FLAG-TAZ and HA-MyoD in HEK 293 cells. The note with it: HEK 293 expressing FLAG-TAZ and HA-MyoD. In kind it is cell-based. The procedure: (2) For analyzing the effects of IBS008738 on the interaction of TAZ and MyoD, immunoprecipitation was performed on human embryonic kidney cells (HEK 293) expressing FLAG-TAZ and HA-MyoD, with anti-FLAF M2 beads.

For another data set, the system named is HCT116 cells. The data set is described as follows: Immunoblotting of EMT markers in HCT116 cells. In kind it is cell-based, human. The protocol: (1) A431 cells, (epidermoid carcinoma), A549 cells (adenocarcinomic human alveolar basal epithelial cell) and HCT116 cells (human colon cancer) were treated with IBS008738 or DMSO, respectively, and evaluated by immunoblotting.
HEK293, A431, A549, HCT116, MCF7 and SW480 cells were cultured in Dulbecco's Modified Eagle Medium (DMEM) containing 10% fetal bovine serum (FBS), 10 mM HEPES-NaOH at pH 7.4, 100 U/ml penicillin and 100 mg/I streptomycin under 5% CO2 at 37° C.

The subject of data set [3] is C2C12 cells. Nature of the data set: Muscle formation in C2C12 cells with or without TAZ knockdown (anti-MHC immunostaining, immunoblotting). In kind it is cell-based, mouse. The note with it: C2C12 cells with TAZ not knocked down (si Cont); 10 μM; 72 hours. The protocol: (2) C2C12 cells with TAZ knocked down by a method described in Sci Signal 2:ra59 (si TAZ) and C2C12 cells with TAZ not knocked down (si Cont) were cultured for 72 hours in a culture medium added with IBS008738 or DMSO at a concentration of 10 μM, respectively, and were immunostained with an anti-MHC antibody (the white portion in FIG. 3B, the bar is 100 μm). Further, immunoblotting was performed with an anti-MHC antibody and an anti-TAZ antibody (see FIG. 3C). […] Further, the expression of MHC was lost by the knockdown of TAZ.
Human TAZ and mouse TAZ were knocked down in MCF10A cells and C2C12 cells as described previously (Ikeda M et al., Sci Signal 2:ra59). The double strand (ds) RNAs used are human TAZ (Ambion s24789) and mouse TAZ (Dharmacon siRNA D-041057).
For orientation: A western blot detects proteins with antibodies after separation by electrophoresis.

With `Cc1ccc(-n2cnc(/N=C/N3CCOCC3)c2C(=O)c2ccccc2)cc1` [exemplary compound 1], the “relative fusion index (FI)” value in the data set with C2C12 cells [1] (Group 1, 1 μM) is 1.47; in the data set on C2C12 cells [1] (Group 1, 3 μM) it was 1.89; in the data set with C2C12 cells [1] (Group 1, 10 μM) it was 2.00; in the data set on C2C12 cells [1] (Group 2, 1 μM), 1.33; in the data set on C2C12 cells [1] (Group 2, 3 μM), 1.80; with C2C12 cells [1] (Group 2, 10 μM), 2.03. Also, the “relative fusion index (FI)” value in the data set with C2C12 cells [1] (Group 3, 1 μM) was determined as 1.28; in the data set on C2C12 cells [1] (Group 3, 3 μM) it was 1.67; with C2C12 cells [1] (Group 3, 10 μM), 1.76; in the data set on C2C12 cells [1] (Group 4, 1 μM), 1.13; in the data set on C2C12 cells [1] (Group 4, 3 μM), 1.53; in the data set with C2C12 cells [1] (Group 4, 10 μM), 1.68. The “relative fusion index (FI)” value with C2C12 cells [1] (Group 5, 1 μM) is on record as 1.10; in the data set with C2C12 cells [1] (Group 5, 3 μM) it was 1.18; in the data set on C2C12 cells [1] (Group 5, 10 μM) it was 1.33. Besides, the “Sphere size, average size (μm)” value with A431 cells amounted to 176.63 μm. Besides, the “effect on the localization of TAZ in the cell” value in the data set with TAZ was “no effect”. Further, in data set [2], the “interaction of TAZ and MyoD compared with DMSO” value is on record as “slightly promoted”. The “EMT markers (fibronectin, E-cadherin, N-cadherin and vimentin) compared with DMSO” value in the data set with HCT116 cells is given as “no significant difference”. In addition, the muscle formation entry in the data set with C2C12 cells [3] is reported as “promoted muscle formation”.

Source of the values: patent US10653672B2, “Myogenesis promotor, muscle atrophy inhibitor, medical composition and TAZ activator” (National University Corporation Tokyo Medical and Dental …, priority 2014, dated 2020).
